How the values were obtained:
morningglory = test: Test B pre/postemergence morningglory; assay type: in vivo, Ipomoea hederacea
Method in brief: (§1)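 Herbicidal effect was estimated by eye on a ten-point control scale after plants spent twelve to sixteen days in a greenhouse following soil or foliar treatment. Foliar sprays targeted plants at one to four leaves; all doses were formulated in a non-phytotoxic solvent with surfactant.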

blackgrass = test: Test B pre/postemergence blackgrass; assay type: in vivo, Alopecurus myosuroides
Method in brief: as §1

surinam grass = test: Test B pre/postemergence surinam grass; assay type: in vivo, Brachiaria decumbens
Method in brief: as §1

purple nutsedge = test: Test B pre/postemergence purple nutsedge; assay type: in vivo, Cyperus rotundus
Method in brief: as §1

bamyardgrass = test: Test B flood test barnyardgrass; assay type: in vivo, Echinochloa crus-galli
Method in brief: (§2)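 Plants were grown to the 2-leaf stage before treatment with test chemical, then held in a greenhouse for twelve to sixteen days. Injury was visually rated against untreated controls on a 0–10 scale, where 0 is no effect and 10 is complete control.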

soybean = test: Test B pre/postemergence soybean; assay type: in vivo, Glycine max
Method in brief: as §1

rice = test: Test B flood test rice; assay type: in vivo, Oryza sativa
Method in brief: as §2

sugar beet = test: Test B pre/postemergence sugar beet; assay type: in vivo, Beta vulgaris
Method in brief: as §1

giant foxtail = test: Test B pre/postemergence giant foxtail; assay type: in vivo, Setaria faberii
Method in brief: as §1

rape = test: Test B pre/postemergence rape; assay type: in vivo, Brassica napus
Method in brief: as §1

duck salad = test: Test B flood test duck salad; assay type: in vivo, Heteranthera limosa
Method in brief: as §2

velvetleaf = test: Test B pre/postemergence velvetleaf; assay type: in vivo, Abutilon theophrasti
Method in brief: as §1

smallflower flatsedge = test: Test B flood test smallflower flatsedge; assay type: in vivo, Cyperus difformis
Method in brief: as §2

pigweed = test: Test B pre/postemergence pigweed; assay type: in vivo, Amaranthus retroflexus
Method in brief: as §1

bedstraw = test: Test B pre/postemergence bedstraw; assay type: in vivo, Galium aparine; settings: Postemergence
Method in brief: as §1

corn = test: Test B pre/postemergence corn; assay type: in vivo, Zea mays
Method in brief: as §1

[1] = Postemergence, Rate 62 g/ha, scale 0 to 10, 0 is no effect, 10 is complete control
[2] = Postemergence, Rate 125 g/ha, scale of 0 to 10 where 0 is no effect and 10 is complete control
[3] = Postemergence, Rate 250 g/ha, scale of 0 to 10, 0 is no effect, 10 is complete control
[4] = Preemergence, Rate 62 g/ha, scale of 0 to 10 where 0 is no effect and 10 is complete control
[5] = Preemergence, Rate 125 g/ha, scale of 0 to 10 where 0 is no effect and 10 is complete control
[6] = Preemergence, Rate 250 g/ha, scale 0 to 10 (0 no effect, 10 complete control)
[7] = Preemergence, Rate 500 g/ha, scale of 0 to 10 where 0 is no effect and 10 is complete control
[8] = Rate 500 g/ha, Postemergence, scale 0 to 10, 0 is no effect, 10 is complete control
[9] = Rate 62 g/ha, flood test species, Pre-emergence, visual evaluation after twelve to sixteen days
[10] = Rate 125 g/ha, under heading Pre-emergence, flood test species, visual evaluation after twelve to sixteen days
[11] = Rate 250 g/ha, Pre-emergence (flood test species), scale 0 to 10, 0 is no effect, 10 is complete control
[12] = Rate 500 g/ha, Pre-emergence section of Table B, 0 to 10 scale (0 no effect, 10 complete control)

## CC(C)N(C(=O)n1oc(=O)n(CCC(=O)N(C)C)c1=O)c1ccccc1 [Compound 671]
morningglory; [1]
  Plant response rating, Morningglory: 1
morningglory; [2]
  Morningglory plant response rating: 1
morningglory; [3]
  Morningglory plant response rating: 1
morningglory; [4]
  Morningglory plant response rating: 0
morningglory; [5]
  Plant response rating, Morningglory: 2
morningglory; [6]
  Plant response rating, Morningglory: 5
morningglory; [7]
  Plant response rating, Morningglory: 8
morningglory; [8]
  Morningglory plant response rating: 6
blackgrass; [1]
  Plant response rating, Blackgrass: 0
blackgrass; [2]
  Blackgrass plant response rating: 6
blackgrass; [3]
  Blackgrass plant response rating: 8
blackgrass; [4]
  Blackgrass plant response rating: 5
blackgrass; [5]
  Plant response rating, Blackgrass: 7
blackgrass; [6]
  Plant response rating, Blackgrass: 8
blackgrass; [7]
  Plant response rating, Blackgrass: 10
blackgrass; [8]
  Blackgrass plant response rating: 8
Surinam grass; [1]
  Plant response rating, B. signalgrass: 0
Surinam grass; [2]
  Plant response rating, B. signalgrass: 1
Surinam grass; [3]
  B. signalgrass plant response rating: 6
Surinam grass; [4]
  B. signalgrass plant response rating: 4
Surinam grass; [5]
  Plant response rating, B. signalgrass: 6
Surinam grass; [6]
  Plant response rating, B. signalgrass: 7
Surinam grass; [7]
  Plant response rating, B. signalgrass: 9
Surinam grass; [8]
  B. signalgrass plant response rating: 8
Purple nutsedge; [1]
  Plant response rating, Nutsedge: 0
Purple nutsedge; [2]
  Nutsedge plant response rating: 0
Purple nutsedge; [4]
  Nutsedge plant response rating: 0
Purple nutsedge; [5]
  Plant response rating, Nutsedge: 2
Purple nutsedge; [6]
  Plant response rating, Nutsedge: 6
Purple nutsedge; [7]
  Plant response rating, Nutsedge: 6
Purple nutsedge; [8]
  Nutsedge plant response rating: 0
bamyardgrass; [9]
  Plant response rating, Barnyardgrass (0 to 10 scale, 0 is no effect, 10 is complete control): 0
bamyardgrass; [10]
  Barnyardgrass plant response rating (0 to 10 scale, 0 is no effect, 10 is complete control): 0
bamyardgrass; [11]
  Barnyardgrass plant response rating: 0
bamyardgrass; [12]
  Barnyardgrass plant response rating: 0
soybean; [1]
  Plant response rating, Soybean: 2
soybean; [2]
  Soybean plant response rating: 2
soybean; [4]
  Soybean plant response rating: 0
soybean; [5]
  Plant response rating, Soybean: 0
soybean; [6]
  Plant response rating, Soybean: 0
soybean; [7]
  Plant response rating, Soybean: 3
soybean; [8]
  Soybean plant response rating: 4
rice; [9]
  Plant response rating, Rice (0 to 10 scale, 0 is no effect, 10 is complete control): 0
rice; [10]
  Rice plant response rating (0 to 10 scale, 0 is no effect, 10 is complete control): 0
rice; [11]
  Rice plant response rating: 0
rice; [12]
  Rice plant response rating: 0
Sugar beet; [1]
  Plant response rating, Sugarbeets: 0
Sugar beet; [2]
  Sugarbeets plant response rating: 0
Sugar beet; [4]
  Sugarbeets plant response rating: 1
Sugar beet; [5]
  Plant response rating, Sugarbeets: 9
Sugar beet; [6]
  Plant response rating, Sugarbeets: 9
Sugar beet; [7]
  Plant response rating, Sugarbeets: 9
Sugar beet; [8]
  Sugarbeets plant response rating: 3
Giant foxtail; [1]
  Plant response rating, Giant foxtail: 5
Giant foxtail; [2]
  Giant foxtail plant response rating: 5
Giant foxtail; [3]
  Giant foxtail plant response rating: 9
Giant foxtail; [4]
  Giant foxtail plant response rating: 8
Giant foxtail; [5]
  Plant response rating, Giant foxtail: 9
Giant foxtail; [6]
  Plant response rating, Giant foxtail: 10
Giant foxtail; [7]
  Plant response rating, Giant foxtail: 10
Giant foxtail; [8]
  Giant foxtail plant response rating: 9
rape; [1]
  Plant response rating, Rape: 0
rape; [2]
  Rape plant response rating: 0
rape; [4]
  Rape plant response rating: 0
rape; [5]
  Plant response rating, Rape: 0
rape; [6]
  Plant response rating, Rape: 0
rape; [7]
  Plant response rating, Rape: 8
rape; [8]
  Rape plant response rating: 2
Duck salad; [9]
  Plant response rating, Ducksalad (0 to 10 scale, 0 is no effect, 10 is complete control): 0
Duck salad; [10]
  Ducksalad plant response rating (0 to 10 scale, 0 is no effect, 10 is complete control): 0
Duck salad; [11]
  Ducksalad plant response rating: 0
Duck salad; [12]
  Ducksalad plant response rating: 0
velvetleaf; [1]
  Plant response rating, Velvetleaf: 0
velvetleaf; [2]
  Velvetleaf plant response rating: 0
velvetleaf; [4]
  Velvetleaf plant response rating: 2
velvetleaf; [5]
  Plant response rating, Velvetleaf: 7
velvetleaf; [6]
  Plant response rating, Velvetleaf: 7
velvetleaf; [7]
  Plant response rating, Velvetleaf: 9
velvetleaf; [8]
  Velvetleaf plant response rating: 3
Smallflower flatsedge; [9]
  Plant response rating, S. Flatsedge (0 to 10 scale, 0 is no effect, 10 is complete control): 0
Smallflower flatsedge; [10]
  S. Flatsedge plant response rating (0 to 10 scale, 0 is no effect, 10 is complete control): 0
Smallflower flatsedge; [11]
  S. Flatsedge plant response rating: 0
Smallflower flatsedge; [12]
  S. Flatsedge plant response rating: 0
pigweed; [1]
  Plant response rating, Redroot pigweed: 0
pigweed; [2]
  Redroot pigweed plant response rating: 1
pigweed; [4]
  Redroot pigweed plant response rating: 0
pigweed; [5]
  Plant response rating, Redroot pigweed: 2
pigweed; [6]
  Plant response rating, Redroot pigweed: 10
pigweed; [7]
  Plant response rating, Redroot pigweed: 10
pigweed; [8]
  Redroot pigweed plant response rating: 5
bedstraw; Rate 125 g/ha, scale of 0 to 10 where 0 is no effect and 10 is complete control
  Bedstraw plant response rating: 0
bedstraw; Rate 250 g/ha, scale of 0 to 10, 0 is no effect, 10 is complete control
  Bedstraw plant response rating: 0
bedstraw; Rate 500 g/ha, scale 0 to 10, 0 is no effect, 10 is complete control
  Bedstraw plant response rating: 0
corn; [1]
  Plant response rating, Corn: 0
corn; [2]
  Corn plant response rating: 0
corn; [3]
  Corn plant response rating: 0
corn; [4]
  Corn plant response rating: 0
corn; [5]
  Plant response rating, Corn: 0
corn; [6]
  Plant response rating, Corn: 3
corn; [7]
  Plant response rating, Corn: 9
corn; [8]
  Corn plant response rating: 5

From US6737383B1, “Herbicidal oxadiazolidines” (priority 1999, dated 2004)
